Where two headings read alike, the source gives them in different places.
Experiments:
NDM-1 = NDM-1 (Klebsiella pneumoniae, UniProt C7C422); assay: biochemical; format: biochemical; settings: read-out: NDM-1 IC50
IMP-1 = IMP-1 (Serratia marcescens, UniProt P52699); assay: biochemical; format: biochemical; settings: read-out: IMP-1 IC50
VIM-1 = VIM-1 (Pseudomonas aeruginosa (strain ATCC 15692 / DSM 22644 / CIP 104116 / JCM 14847 / LMG 12228 / 1C / PRS 101 / PAO1), UniProt A0A0F7KYQ8); assay: Enzyme activity: determination of IC50, fluorescence assay with CCF2-FA substrate (VIM-1); format: biochemical
[1] = tested on: Escherichia coli expressing NDM-1 (CLB30016); assay: Antibiotic potentiation activity: synergistic concentration (MITC95) with imipenem, OD600 growth; format: cell-based
Procedure, shortened: (§1)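 Growth after 22–24 h at 35 °C is measured spectrophotometrically for bacteria incubated with compound plus imipenem (4 μg/ml in-well, or 1 μg/ml). Cells come from overnight agar colonies resuspended in saline and diluted 1:100 in 1.1× CAMHB.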

[2] = tested on: Klebsiella pneumoniae expressing VIM-1 (IHMA599644); assay: as above; format: cell-based
Procedure, shortened: as §1

[3] = tested on: Serratia marcescens expressing IMP-1 (CL5741); assay: as above; format: cell-based
Procedure, shortened: as §1

[4] = NDM-1 enzyme, CCF2-FA fluorescence assay
[5] = IMP-1 enzyme, CCF2-FA fluorescence assay
[6] = VIM-1 enzyme, CCF2-FA fluorescence assay, read-out: VIM-1 IC50
[7] = Escherichia coli expressing NDM-1 (CLB30016), 95% growth inhibition
[8] = Klebsiella pneumoniae expressing VIM-1 (IHMA599644), 95% growth inhibition
[9] = Serratia marcescens expressing IMP-1 (CL5741), 95% growth inhibition
[10] = NDM-1 enzyme, CCF2-FA substrate
[11] = IMP-1 enzyme, CCF2-FA substrate
[12] = VIM-1 IC50, VIM-1 enzyme, CCF2-FA substrate
[13] = (CLB30016, NDM-1), 95% growth inhibition
[14] = Klebsiella pneumoniae IHMA599644 (VIM-1), 95% growth inhibition
[15] = Serratia marcescens CL5741 (IMP-1), 95% growth inhibition
[16] = VIM-1 enzyme, CCF2-FA substrate, read-out: VIM-1 IC50
[17] = fluorescence assay with CCF2-FA substrate
[18] = fluorescence assay with CCF2-FA substrate, read-out: VIM-1 IC50
[19] = CLB30016 (NDM-1), 95% inhibition of bacterial growth
[20] = IHMA599644 (VIM-1), 95% inhibition of bacterial growth
[21] = CL5741 (IMP-1), 95% inhibition of bacterial growth
[22] = VIM-1 IC50, VIM-1 enzyme, CCF2-FA fluorescence assay
[23] = concentration giving 95% inhibition of bacterial growth

Chain of IMP-1 (P52699 whole entry, looked up): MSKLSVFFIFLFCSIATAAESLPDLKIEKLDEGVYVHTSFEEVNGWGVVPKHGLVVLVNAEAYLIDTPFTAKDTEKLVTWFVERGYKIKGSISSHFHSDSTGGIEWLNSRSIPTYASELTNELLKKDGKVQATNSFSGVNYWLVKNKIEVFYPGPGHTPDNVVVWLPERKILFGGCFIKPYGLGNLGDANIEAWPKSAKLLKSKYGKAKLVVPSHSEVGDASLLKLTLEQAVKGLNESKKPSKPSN
Chain of NDM-1 (C7C422 whole entry, looked up, species assumed): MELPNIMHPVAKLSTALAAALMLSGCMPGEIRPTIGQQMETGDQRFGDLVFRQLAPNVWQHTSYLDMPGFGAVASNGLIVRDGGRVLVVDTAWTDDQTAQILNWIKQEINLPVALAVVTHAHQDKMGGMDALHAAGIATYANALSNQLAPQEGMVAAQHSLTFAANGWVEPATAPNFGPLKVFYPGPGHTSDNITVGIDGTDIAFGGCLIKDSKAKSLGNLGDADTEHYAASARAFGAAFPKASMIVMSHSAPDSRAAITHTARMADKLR

SMILES	IC50 (NDM-1; [4]) [nM]	IC50 (IMP-1; [5]) [nM]	Escherichia coli MITC95 [1, 7] [µM]	Klebsiella pneumoniae MITC95 [2, 8] [µM]	Serratia marcescens MITC95 [3, 9] [µM]	IC50 (NDM-1; [10]) [nM]	IC50 (IMP-1; [11]) [nM]	Escherichia coli MITC95 [1, 13] [µM]	Klebsiella pneumoniae MITC95 [2, 14] [µM]	Serratia marcescens MITC95 [3, 15] [µM]	IC50 (VIM-1; [16]) [nM]	other results
NS(=O)(=O)c1nccc(N2CCCC(Cc3cccnc3)C2)c1-c1nnn[nH]1 (stereo not drawn) [Example 243, 4-[3-(pyridin-3-ylmethyl)piperidin-1-yl]-3-(1H-tetrazol-5-yl)pyridine-2-sulfonamide]	67.1	1510	18.75	>200	100	–	–	–	–	–	–	IC50 (VIM-1; [6]): 204 nM
NCCCCCNc1nc2c(-c3cccc(S(N)(=O)=O)c3-c3nnn[nH]3)cccc2s1 [Example 644, 3-[2-(5-aminopentylamino)-1,3-benzothiazol-4-yl]-2-(1H-tetrazol-5-yl)benzenesulfonamide]	–	–	–	–	–	1.34	32.4	4.688	75	37.5	–	IC50 (VIM-1; [12]): 13.8 nM
Nc1cccc2c(-c3ccc(C(F)(F)F)c(S(N)(=O)=O)c3-c3nn[nH]n3)cc(C(=O)O)nc12 [Example 526, 8-Amino-4-(3-sulfamoyl-2-(2H-tetrazol-5-yl)-4-(trifluoromethyl)phenyl)quinoline-2-carboxylic acid]	–	–	–	–	–	1.85	4.58	25	50	100	1.59	–
NS(=O)(=O)c1c(C(F)(F)F)ccc(N2CCC3(CCCNC3)CC2)c1-c1nnn[nH]1 [Example 776, 3-(2,9-diazaspiro[5.5]undec-9-yl)-2-(1H-tetrazol-5-yl)-6-(trifluoromethyl) benzenesulfonamide]	–	–	–	–	–	–	–	–	–	–	–	IC50 (NDM-1; [17]): 15.2 nM; IC50 (IMP-1; [17]): 55.9 nM; IC50 (VIM-1; [18]): 15.9 nM; Escherichia coli MITC95 [1, 19]: 25 µM; Klebsiella pneumoniae MITC95 [2, 20]: 25 µM; Serratia marcescens MITC95 [3, 21]: 50 µM
NS(=O)(=O)c1cccc(-c2ccc(CNC3CCNC3=O)cc2)c1-c1nnn[nH]1 (stereo not drawn) [Example 388, 4′-{[(2-oxopyrrolidin-3-yl)amino]methyl}-2-(1H-tetrazol-5-yl)biphenyl-3-sulfonamide]	4.28	48.6	1.563	200	1.563	–	–	–	–	–	–	IC50 (VIM-1; [22]): 273 nM
Nc1ccc(-c2ccc(CC[C@H]3CC[C@@H](N)CC3)c(S(N)(=O)=O)c2-c2nnn[nH]2)cn1 [Example 578, 6-(2-((1s,4r)-4-aminocyclohexyl)ethyl)-3-(6-aminopyridin-3-yl)-2-(1H-tetrazol-5-yl)benzenesulfonamide]	–	–	–	–	–	1.85	47.1	3.125	50	12.5	11.1	–
NCC[C@H]1CC[C@@H](c2ccc(C(F)(F)F)c(S(N)(=O)=O)c2-c2nnn[nH]2)CC1 [Example 498, 3-(cis 4-(2-aminoethyl)cyclohexyl)-2-(1H-tetrazol-5-yl)-6-(trifluoromethyl)benzenesulfonamide]	–	–	–	–	–	2.15	5.5	0.3906	4.688	0.1953	–	IC50 (VIM-1; [12]): 6.37 nM
NS(=O)(=O)c1cccc(-c2cnc3ccccc3c2)c1-c1nnn[nH]1 [Example 165, 3-(quinolin-3-yl)-2-(1H-tetrazol-5-yl)benzenesulfonamide]	–	–	–	–	–	–	–	–	–	–	–	IC50 (NDM-1; [17]): 1.24 nM; IC50 (IMP-1; [17]): 214 nM; IC50 (VIM-1; [18]): 11.6 nM; Escherichia coli expressing NDM-1 (CLB 30016) MITC95 [1, 23]: 0.5859 µM; Klebsiella pneumoniae expressing VIM-1 (IHMA 599644) MITC95 [2, 23]: 37.5 µM; Serratia marcescens expressing IMP-1 (CL5741) MITC95 [3, 23]: 9.375 µM
NC[C@H]1CC[C@H](c2ccc(CCC3CCNCC3)c(S(N)(=O)=O)c2-c2nnn[nH]2)CC1 [Example 591, 3-((1r,4r)-4-(aminomethyl)cyclohexyl)-6-(2-(piperidin-4-yl)ethyl)-2-(1H-tetrazol-5-yl)benzenesulfonamide]	–	–	–	–	–	16	320	1.563	25	6.25	574	–
NS(=O)(=O)c1c(C(F)(F)F)ccc(-c2cnc3ccccn23)c1-c1nnn[nH]1 [Example 748, 3-imidazo[1,2-a]pyridin-3-yl-2-(1H-tetrazol-5-yl)-6-(trifluoromethyl)benzenesulfon-amide]	–	–	–	–	–	–	–	–	–	–	–	IC50 (NDM-1; [17]): 0.833 nM; IC50 (IMP-1; [17]): 1.25 nM; IC50 (VIM-1; VIM-1 IC50, fluorescence assay with CCF2-FA substrate): 0.248 nM; Escherichia coli MITC95 [1, 19]: 0.7813 µM; Klebsiella pneumoniae MITC95 [2, 20]: 6.25 µM; Serratia marcescens MITC95 [3, 21]: 6.25 µM
NS(=O)(=O)c1cccc(-c2ccc(CNCCc3nc[nH]n3)cc2)c1-c1nnn[nH]1 [Example 338, 4′-(((2-(1H-1,2,4-triazol-3-yl)ethyl)amino)methyl)-2-(1H-tetrazol-5-yl)-[1,1′-biphenyl]-3-sulfonamide]	4.53	75.4	0.5859	25	3.125	–	–	–	–	–	–	IC50 (VIM-1; [22]): 152 nM
NCCCN1CC(c2ccc(-c3ccc(C(F)(F)F)c(S(N)(=O)=O)c3-c3nnn[nH]3)cc2)C1 [Example 816, 4′-[1-(3-aminopropyl)azetidin-3-yl]-2-(1H-tetrazol-5-yl)-4-(trifluoromethyl)biphenyl-3-sulfonamide]	–	–	–	–	–	–	–	–	–	–	–	IC50 (NDM-1; [17]): 6.62 nM; IC50 (IMP-1; [17]): 16.3 nM; IC50 (VIM-1; [18]): 13.5 nM; Escherichia coli MITC95 [1, 19]: 1.563 µM; Klebsiella pneumoniae MITC95 [2, 20]: 12.5 µM; Serratia marcescens MITC95 [3, 21]: 6.25 µM
NS(=O)(=O)c1c(CC[C@H]2CC[C@@H](N)CC2)ccc(-c2ccc(C3CCNCC3)cc2)c1-c1nn[nH]n1 [Example 462, 4-(2-((1s,4r)-4-aminocyclohexyl)ethyl)-4′-(piperidin-4-yl)-2-(2H-tetrazol-5-yl)-[1,1′-biphenyl]-3-sulfonamide]	3.8	11.5	0.7813	18.75	1.563	–	–	–	–	–	–	IC50 (VIM-1; [6]): 8.13 nM
NC(=O)c1nccc2cc(-c3cccc(S(N)(=O)=O)c3-c3nn[nH]n3)ccc12 [Example 281, 6-(3-sulfamoyl-2-(2H-tetrazol-5-yl)phenyl)isoquinoline-1-carboxamide]	0.342	42.9	0.7813	12.5	3.125	–	–	–	–	–	–	IC50 (VIM-1; [6]): 12.2 nM
NS(=O)(=O)c1cccc(-c2cnc3ncccn23)c1-c1nnn[nH]1 [Example 647, 3-imidazo[1,2-a]pyrimidin-3-yl-2-(1H-tetrazol-5-yl)benzenesulfonamide]	–	–	–	–	–	14.1	618	0.25	6.25	18.75	83.9	–
NS(=O)(=O)c1c(C(F)(F)F)ccc(-c2ccc3c(c2)CNCC3)c1-c1nnn[nH]1 [Example 720, 3-(1,2,3,4-tetrahydroisoquinolin-7-yl)-2-(1H-tetrazol-5-yl)-6-(trifluoromethyl)benzenesulfon-amide]	–	–	–	–	–	3.04	16.1	6.25	3.125	12.5	1.04	–
